Data on six substances can be found in EP2330125A2 (priority 2005, dated 2007).

Like-named read-outs stand apart in the source and are kept apart here.

The target in one assay is calcitonin receptor. The class given is binding.
In a further assay the target is GLP Receptor. The class given is biochemical.
Assay [1] is classed as in vivo, NIH/Swiss mice. Set-up: key to percent inhibition of food intake: "ns" means "not significant" compared to vehicle.
Method: For studies of the effects of PPF polypeptides on longer-term (chronic) food intake and/or body composition, the amount of food consumed over a period of two weeks was measured. For these studies of the effects of PPF polypeptides on longer-term food intake and/or body composition, mice were housed singly for 1 week prior to the beginning of treatment. Throughout the experiments, food intake and body weight were monitored daily. […] At the end of each study, animals were sacrificed after a 2-4 hr fast by isoflurane overdose. Blood was collected into Na-heparin-flushed syringes by cardiac puncture, and plasma was immediately frozen. In some studies, body composition was determined using dual-energy X-ray absorptiometry (DEXA; PixiMus, GE Lunar). In some studies, body composition (such as the amounts of fat and protein) were measured pre- and post treatment using a rodent NMR machine (EchoMRI-700™), in which animals are placed in a restraining tube and placed in the NMR for 2 minutes, and the amount of fat and lean mass, in grams, is quantified.
The format of assay [2] is in vivo, C57BL/6 mice. Conditions: mouse DIO.
From the text: An exemplary assay can be one that involves utilization of a diet-induced obese (DIO) mouse model for metabolic disease. […] During the study, the mice can continue to eat their high-fat diet Water can be provided ad libitum throughout the study.
DIO mice can be implanted with subcutaneous (SC) intrascapular osmotic pumps to deliver either vehicle (50% dimethylsulfoxide (DMSO) in water) or a compound of the invention.
Body weights and food intake can be measured over regular intervals throughout the study periods. Respiratory quotient (RQ, defined as CO2 production ÷ O2 consumption) and metabolic rate can be determined using whole-animal indirect calorimetry (Oxymax, Columbus Instruments, Columbus, OH). The mice can be euthanized by isoflurane overdose, and an index of adiposity (bilateral epididymal fat pad weight) measured. Moreover, prior to determination of epididymal weight, body composition (lean mass, fat mass) for each mouse can be analyzed using a Dual Energy X-ray Absorptiometry (DEXA) instrument per manufacturer's instructions (Lunar Piximus, GE Imaging System).
Assay [3] is classed as in vivo, Sprague-Dawley rat (Levin DIO rats). Conditions: for percent inhibition of body weight: rat DIO.
Method: (§1) DIO male rats are obtained from Charles River Laboratories, Inc. (Wilmington, MA). […] The animals typically achieve a mean body weight of about 500 g. Levin DIO rats are habituated to caging environment for 7 days. During the 3 nights of habituation, animals receive a single intraperitoneal (IP) injection of vehicle. […] Food intake is measured by an automated food intake measuring system (BioDAQ, Research Diets) at 5 sec intervals throughout the course of the study. Body weight is recorded nightly.
Body composition was measured prior to and after drug treatment using NMR (Echo Medical Systems, Houston, TX). For body composition measurements, rats are briefly placed (~1 min) in a well-ventilated plexiglass tube that was then inserted into a specialized rodent NMR machine. This enabled the calculation of changes in actual grams of fat and dry lean tissue (e.g., grams of body fat after treatment -grams of body fat at baseline = change in grams of body fat) and changes in % body composition for fat and dry lean tissue (e.g., % body fat after treatment -% body fat at baseline = change in % body fat). All data are represented as mean ± SEM. Analysis of variance (ANOVA) and post-hoc tests were used to test for group difference. […] Graphs and results are typically presented as vehicle-corrected changes in percent body weight, body fat and changes in body protein
Values are as provided as percent inhibition of body weight after infusion for the time periods indicated.
The format of assay [4] is in vivo, Levin rats.
From the text: Values are given as percent reduction of blood glucose level.
Assay [5] is described as follows: Gastric emptying (acetaminophen passed). It is filed as in vivo, Levin rats.
From the text: Values are given as percent inhibition of gastric emptying and percent acetaminophen passed.
The conditions of assay [6]: rat, in vivo.
Method: as §1
Values are given as percent inhibition of body weight.
Values are given as percent inhibition of body weight. […] Body Weight: ∼2% difference is statistically significant.
The conditions of assay [7]: rat, in vivo. This is another data set of the same source.
Method: as §1
Values are given as percent inhibition of body weight. […] Body Weight: ∼2% difference is statistically significant. Food Intake: ∼20% difference is statistically significant.
Another assay has as its target T1, CGRP receptors (Homo sapiens, UniProt O60894+Q16602).
T1 construct: SK-N-MC and L6 cells expressing endogenous CGRP receptors; endogenous in cells; host or cells: SK-N-MC cell membranes
It is filed as binding.

A further assay deals with T2, CT receptor (Rattus norvegicus, UniProt P32214).
T2 construct: host or cells: 'C1A' (not explained)
T2 sequence (P32214 25-479 isoform P32214-2 limits assumed): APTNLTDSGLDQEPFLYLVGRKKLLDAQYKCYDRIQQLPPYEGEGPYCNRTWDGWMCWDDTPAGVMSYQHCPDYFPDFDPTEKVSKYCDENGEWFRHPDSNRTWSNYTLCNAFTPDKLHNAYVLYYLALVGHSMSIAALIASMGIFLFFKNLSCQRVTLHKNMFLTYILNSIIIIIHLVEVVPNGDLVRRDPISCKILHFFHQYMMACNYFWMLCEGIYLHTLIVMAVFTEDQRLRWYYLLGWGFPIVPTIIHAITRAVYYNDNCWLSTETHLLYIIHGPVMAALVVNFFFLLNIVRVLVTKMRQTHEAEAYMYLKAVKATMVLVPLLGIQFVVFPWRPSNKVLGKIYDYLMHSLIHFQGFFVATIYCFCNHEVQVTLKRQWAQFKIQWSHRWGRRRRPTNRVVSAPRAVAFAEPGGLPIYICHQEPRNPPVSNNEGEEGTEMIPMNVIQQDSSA
It is filed as cell-based.

For assay [8] the following is noted: infusions in normal men; cited from earlier work.

T1 sequence (Q16602 23-461): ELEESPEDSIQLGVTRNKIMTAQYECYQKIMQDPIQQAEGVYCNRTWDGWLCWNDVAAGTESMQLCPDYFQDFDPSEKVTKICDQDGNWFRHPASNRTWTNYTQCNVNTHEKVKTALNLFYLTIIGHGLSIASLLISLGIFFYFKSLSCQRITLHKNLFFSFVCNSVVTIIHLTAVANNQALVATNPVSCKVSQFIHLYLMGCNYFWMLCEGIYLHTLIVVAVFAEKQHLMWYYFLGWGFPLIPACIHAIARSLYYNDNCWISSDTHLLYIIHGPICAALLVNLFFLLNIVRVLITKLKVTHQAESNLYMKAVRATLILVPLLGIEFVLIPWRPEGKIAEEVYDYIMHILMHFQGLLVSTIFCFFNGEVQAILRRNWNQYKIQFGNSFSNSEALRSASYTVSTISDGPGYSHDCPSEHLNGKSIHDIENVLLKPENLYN
T1 sequence (O60894 27-148 partner): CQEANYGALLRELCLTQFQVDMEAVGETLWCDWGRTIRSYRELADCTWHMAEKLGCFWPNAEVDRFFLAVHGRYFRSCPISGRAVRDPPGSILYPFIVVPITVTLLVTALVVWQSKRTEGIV

Turning to “KCNTATCATQRLANFLVRSSNNLGPVLPPTNVGSNTY [rat amylin]”, the IC50 on calcitonin receptor (read-out: Receptor Binding CT) came out at 3 nM. The EC50 at GLP Receptor (read-out: Receptor Activation GLP-1/GIP/CT cyclase) is 5 nM. The “percent inhibition of food intake” value in [1] (25 nmol/kg, 30 min) was found to be 46%; in assay [1] (25 nmol/kg, 60 min) it was 35%; in assay [1] (25 nmol/kg, 120 min), 21%; in assay [1] (25 nmol/kg, 180 min), 17%; in assay [1] (25 nmol/kg, 240 min) it was 7%; in assay [1] (250 nmol/kg, 30 min), 70%. The “percent inhibition of food intake” value worked out at 53% in assay [1] (250 nmol/kg, 60 min); 38% in [1] (250 nmol/kg, 120 min); 30% in assay [1] (250 nmol/kg, 180 min); 88% in [1] (300 nmol/kg, 30 min); 90% in assay [1] (300 nmol/kg, 60 min); 51% in [1] (300 nmol/kg, 120 min). Further, the “percent inhibition of food intake” value in assay [1] (300 nmol/kg, 180 min) is 21%. In addition, in assay [1] (Mouse Food Intake, 60 min), the “60 min ED50” value worked out at 9 nmol/kg. The “percent inhibition of body weight” value came to 1.9% in assay [2] (infusion 30 nmol/kg/d, Day 2); 1.5% in [2] (infusion 30 nmol/kg/d, Day 7); 2.1% in assay [2] (infusion 30 nmol/kg/d, Day 14); 2.5% in assay [2] (infusion 30 nmol/kg/d, Day 21); 2.2% in assay [2] (infusion 30 nmol/kg/d, Day 28); 1.5% in [2] (infusion 75 nmol/kg/d, Day 2). For the same substance, the “percent inhibition of body weight” value is listed as 1.4% in assay [2] (infusion 75 nmol/kg/d, Day 7); 2.1% in [2] (infusion 75 nmol/kg/d, Day 14); 1.6% in assay [2] (infusion 100 nmol/kg/d, Day 2); 1.8% in [2] (infusion 100 nmol/kg/d, Day 7); 3.1% in assay [2] (infusion 100 nmol/kg/d, Day 14); 3.8% in assay [2] (infusion 100 nmol/kg/d, Day 21). Besides, the “percent inhibition of body weight” value in assay [2] (infusion 100 nmol/kg/d, Day 28) is recorded as 4.4%; in assay [2] (infusion 100 nmol/kg/d, Day 35), 6.9%; in assay [2] (infusion 100 nmol/kg/d, Day 42), 8.6%; in assay [2] (infusion 100 nmol/kg/d, Day 49), 9.6%; in assay [2] (infusion 100 nmol/kg/d, Day 63), 10.3%; in assay [2] (infusion 100 nmol/kg/d, Day 70), 11.4%. Besides, the “percent inhibition of body weight” value in assay [2] (infusion 100 nmol/kg/d, Day 77) is given as 12%; in [2] (infusion 100 nmol/kg/d, Day 84) it was 13.4%; in assay [2] (infusion 300 nmol/kg/d, Day 2), 1.1%; in assay [2] (infusion 300 nmol/kg/d, Day 7), -0.7%; in assay [2] (infusion 300 nmol/kg/d, Day 14), -0.9%; in [2] (infusion 300 nmol/kg/d, Day 21), -1.5%. Besides, the “percent inhibition of body weight” value in [2] (infusion 300 nmol/kg/d, Day 28) is recorded as -1.5%; in assay [3] (infusion 0.7 nmol/kg/d, Day 7) it was 1.6%; in assay [3] (infusion 0.7 nmol/kg/d, Day 14) it was 1.3%; in assay [3] (infusion 0.7 nmol/kg/d, Day 21) it was 1.6%; in assay [3] (infusion 0.7 nmol/kg/d, Day 28), 2.1%; in assay [3] (infusion 7 nmol/kg/d, Day 7) it was 5.7%. The “percent inhibition of body weight” value came out at 7.3% in assay [3] (infusion 7 nmol/kg/d, Day 14); 7.9% in assay [3] (infusion 7 nmol/kg/d, Day 21); 8.3% in assay [3] (infusion 7 nmol/kg/d, Day 28); 5.9% in [3] (infusion 18.4 nmol/kg/d, Day 7); 7.5% in assay [3] (infusion 18.4 nmol/kg/d, Day 14); 6.7% in assay [3] (infusion 18.4 nmol/kg/d, Day 21). Besides, the “percent inhibition of body weight” value in assay [3] (infusion 18.4 nmol/kg/d, Day 28) was 6.5%; in [3] (infusion 23 nmol/kg/d, Day 7), 7.8%; in assay [3] (infusion 23 nmol/kg/d, Day 14) it was 9.4%; in assay [3] (infusion 23 nmol/kg/d, Day 21), 8.8%; in assay [3] (infusion 23 nmol/kg/d, Day 28), 8.8%; in assay [3] (infusion 23 nmol/kg/d, Day 35), 9.5%. Moreover, the “percent inhibition of body weight” value came out at 10% in assay [3] (infusion 23 nmol/kg/d, Day 42); 9.8% in [3] (infusion 23 nmol/kg/d, Day 49); 9.1% in [3] (infusion 23 nmol/kg/d, Day 56); 7.6% in assay [3] (infusion 69 nmol/kg/d, Day 7); 9.3% in assay [3] (infusion 69 nmol/kg/d, Day 14); 11.1% in [3] (infusion 69 nmol/kg/d, Day 21). For the same substance, the “percent inhibition of body weight” value is 12.2% in assay [3] (infusion 69 nmol/kg/d, Day 28); 15.4% in assay [3] (infusion 69 nmol/kg/d, Day 49); 15.7% in [3] (infusion 69 nmol/kg/d, Day 56); 16.2% in assay [3] (infusion 69 nmol/kg/d, Day 63); 15.8% in assay [3] (infusion 69 nmol/kg/d, Day 70); 7.6% in assay [3] (infusion 70 nmol/kg/d, Day 7). The “percent inhibition of body weight” value in assay [3] (infusion 70 nmol/kg/d, Day 14) was found to be 8.9%; in assay [3] (infusion 70 nmol/kg/d, Day 21), 10.2%; in assay [3] (infusion 70 nmol/kg/d, Day 28), 11.8%. Besides, the “%Reduction of blood glucose, OGTT, 30” value was 2.3% in assay [4] (23 nmol/kg/d, day 26) and 11% in assay [4] (69 nmol/kg/d, day 14). Further, the “%Reduction of blood glucose, OGTT, 60” value is 19.2% in assay [4] (23 nmol/kg/d, day 26) and 5.9% in [4] (69 nmol/kg/d, day 14). The “%Reduction of blood glucose, OGTT, 120” value in [4] (23 nmol/kg/d, day 26) came to 2.1%; in assay [4] (69 nmol/kg/d, day 14), 1.2%. The “%Reduction of blood glucose, OGTT, Basal” value in assay [4] (23 nmol/kg/d, day 26) came out at 4%; in [4] (69 nmol/kg/d, day 14), 6%. For the same substance, the “%Reduction of blood glucose, OGTT, 15” value in [4] (69 nmol/kg/d, day 14) was -0.2%. Further, the “%inhibition of gastric emptying” value in assay [5] (69 nmol/kg/d, 21 days on study) was 45%; in [5] (100 µg/kg/d, 26 days on study), 24%. Moreover, the “%passed (acetaminophen)” value in [5] (69 nmol/kg/d, 21 days on study) was 55%; in assay [5] (100 µg/kg/d, 26 days on study), 76%.
Take “DF(P-CH2SO3)MGWNMFGKR KCNTATCATQRLANELVRLQTYPRTNVGSNTY [SEQ ID NO: 398]”: the IC50 at GLP Receptor (read-out: IC50 in a GLP Receptor cyclase (RIN) assay) was determined as 1000 nM.
Amylin: the “1 Wk BW Loss” value in [3] (rat, in vivo) is recorded as 6%; in assay [6] it was 0%. The “FI Iinhib @ 8 hr” value in assay [7] was 0%.
Regarding “[Ser117, dLeu119]leptin(116-122)-Amylin(1-7)-[^11,18Arg]sCT(8-27)-Amylin(33-37) [Compound 16]”, at CGRP receptors, the “binding to the CGRP receptor (RBA = receptor binding assay)” value is listed as “some binding”. Also, the “binding to the CT receptor (RBA = receptor binding assay)” value in the assay with calcitonin receptor was “bound”. Moreover, the “activation of the CT receptor (C1A assay)” value at CT receptor is “able to activate”. Further, in assay [1] (mouse, in vivo), the “cumulative intake, % that of controls” value is reported as 34-38%.
Regarding CCK8, the “percent inhibition of food intake” value in [1] (mouse, in vivo) was “ns”.
For brain natriuretic peptide [BNP], in assay [8], the “increase in sodium excretion” value is 2 fold; the “reduction in plasma renin, angiotensin II and aldosterone secretion” value is on record as 50%.
